Laboratory results: ChEMBL document CHEMBL3784951, “Discovery of (3-(4-(2-Oxa-6-azaspiro[3.3]heptan-6-ylmethyl)phenoxy)azetidin-1-yl)(5-(4-methoxyphenyl)-1,3,4-oxadiazol-2-yl)methanone (AZD1979), a Melanin Concentrating Hormone Receptor 1 (MCHr1) Antagonist with Favorable Physicochemical Properties” (J Med Chem, 2016)
Converted amounts (≈) assume the structure as drawn.

Tests used:
[1] = in vitro; details: human, Caco-2
[2] = physchem; details: buffer, pH 7.4
[3] = in vitro; details: human, microsomes
[4] = physchem
[5] = species: Mus musculus; test: animal or person; details: C57BL/6J
[6] = in vitro; details: rat, microsomes
[7] = in vitro; details: human, Caco-2; remark: listed apart in the source
[8] = species: Mus musculus; test: animal or person; details: C57BL/6J; remark: listed apart in the source
[9] = physchem; details: pH 7.4

SMILES	Papp A→B [1] [×10⁻⁶ cm/s]	logD [2]	microsomal CLint [3] [µL/min/mg]	pKa [4]	IC50 [5] [nM]	microsomal CLint [6] [µL/min/mg]	efflux ratio [7]	IC50 [8] [nM]	solubility [9] [µM]
O=C(c1nnc(-c2ccc(OC(F)F)cc2)o1)N1CCC(Oc2ccc(CN3CCCC3)cc2)CC1	50	2.9	15	–	–	–	–	–	–
COc1ccc(-c2nnc(C(=O)N3CC(Oc4ccc(CN5CC6(CCCO6)C5)cc4)C3)o2)cc1	41	2.7	29	8.4	2	–	–	–	–
COc1ccc(-c2nnc(C(=O)N3CC(Oc4ccc(CN(C)C)c(F)c4)C3)o2)cc1	62	2.2	42	8.6	9	218	0.32	–	–
COc1ccc(-c2nnc(C(=O)N3CCC(Oc4ccc(CN5CC(O)C(C)(C)C5)cc4)CC3)o2)cc1 (stereo not given)	34	2.6	19	8.9	–	–	–	91	–
COc1ccc(-c2nnc(C(=O)N3CC(Oc4ccc(CN(C)C)cn4)C3)o2)cc1	–	1.8	13	8.5	–	145	–	–	–
O=C(c1nnc(-c2ccccc2)o1)N1CC(Oc2ccc(CN3CC4(COC4)C3)cc2)C1	79	1.8	–	–	15	–	–	–	–
COc1ccc(-c2nnc(C(=O)N3CC(Oc4ccc(CN(C)CC5(C)COC5)cc4)C3)o2)cc1	–	4.1	110	8	–	–	–	–	–
COc1ccc(-c2nnc(C(=O)N3CCC(Oc4ccc(CN5CCN(C)CC5)cc4)CC3)o2)cc1	56	2.5	–	8.5	–	–	–	–	–
COc1ccc(-c2nnc(C(=O)N3CC(Oc4ccc(CN(C)C)c(C)c4)C3)o2)cc1	54	2	22	9.3	1	149	0.3	–	–
Cn1nc(C(=O)N2CCC(Oc3ccc(CN4CCCC4)cc3)CC2)cc1-c1ccccc1	–	2.2	7	–	–	–	–	–	930 (≈ 413 µg/mL)
COc1ccc(-c2nnc(C(=O)N3CC(Oc4ccc(CN5CCCC56COC6)cc4)C3)o2)cc1	–	3.9	74	–	–	–	–	–	–
CN(Cc1ccc(OC2CN(C(=O)c3nnc(-c4ccccc4)o3)C2)cc1)CC1(C)COC1	–	4	117	8.5	–	–	–	–	–
Cc1oc(-c2ccccc2)nc1C(=O)N1CCC(Oc2ccc(CN3CCCC3)cc2)CC1	–	3	–	–	–	–	–	–	754 (≈ 336 µg/mL)
O=C(c1nnc(-c2ccccc2)o1)N1CC(Oc2ccc(CN3CC4(CCCO4)C3)cc2)C1	–	2.6	6	8.4	–	–	–	–	–
O=C(c1nnc(-c2ccc(F)cc2)o1)N1CCC(Oc2ccc(CN3CCCC3)cc2)CC1	52	2.4	–	–	–	–	–	–	> 100
COc1ccc(-c2nnc(C(=O)N3CC(Oc4ccc(CN5CCC(C)(O)C5)cc4)C3)o2)cc1 (stereo not given)	42	1.6	2.8	9	35	–	–	–	–

SMILES	Papp A→B [1] [×10⁻⁶ cm/s]	logD [2]	microsomal CLint [3] [µL/min/mg]	pKa [4]	IC50 [5] [nM]	microsomal CLint [6] [µL/min/mg]	efflux ratio [7]	IC50 [8] [nM]	solubility [9] [µM]
CC1(O)CCN(Cc2ccc(OC3CN(C(=O)c4nnc(-c5ccccc5)o4)C3)cc2)C1 (stereo not given)	34	1.45	–	9	146	–	0.26	–	–
COc1ccc(-c2nnc(C(=O)N3CC(Oc4ccc(CN5CCN(C)CC5)c(F)c4)C3)o2)cc1	46	2.2	36	8.4	–	–	0.35	–	–
COc1ccc(-c2nnc(C(=O)N3CC(Oc4ccc(CN5CCOCC5)c(OC)c4)C3)o2)cc1	51	3.3	332	7.5	–	–	–	–	–
COc1ccc(-c2nnc(C(=O)N3CCC(Oc4ccc(CN5CCC(O)C5)cc4)CC3)o2)cc1 (stereo not given)	36	2	–	8.9	–	–	–	293	–
O=C(c1cc(-c2ccccc2)on1)N1CCC(Oc2ccc(CN3CCCC3)cc2)CC1	–	3	–	–	–	–	–	–	198 (≈ 85.4 µg/mL)
COc1ccc(-c2nnc(C(=O)N3CCC(Oc4ccc(CN5CCCC5)cn4)CC3)o2)cc1	49	2.3	24	9.2	–	28	–	–	–
O=C(c1nnc(-c2ccc(Cl)cc2)o1)N1CCC(Oc2ccc(CN3CCCC3)cc2)CC1	43	–	13	–	–	17	–	–	70 (≈ 32.7 µg/mL)
O=C(c1nnc(-c2ccccc2)o1)N1CC(Oc2ccc(CN3CC4(CCOC4)C3)cc2)C1	–	2.1	2	8.6	–	–	–	–	–
CN1CCN(Cc2ccc(OC3CN(C(=O)c4nnc(-c5ccccc5)o4)C3)cc2F)CC1	46	2.1	20	8.4	–	–	0.35	–	–
COc1ccc(-c2nnc(C(=O)N3CC(Oc4ccc(CN5CC(OC)C5)cc4)C3)o2)cc1	–	2.3	51	8.5	–	–	–	–	–
O=C(c1nnc(-c2ccccc2)o1)N1CCC(Oc2ccc(CN3CCCC3)cc2)CC1	55	2.2	–	–	–	–	–	–	> 100
O=C(c1nnc(-c2ccccc2Cl)o1)N1CCC(Oc2ccc(CN3CCCC3)cc2)CC1	59	2.7	13	–	–	–	–	–	–
COc1ccc(-c2nnc(C(=O)N3CC(Oc4ccc(CN5CC6(CCOC6)C5)cc4)C3)o2)cc1	60	2.2	14	8.6	2	–	–	–	–
COc1ccc(-c2nnc(C(=O)N3CCC(Oc4ccc(CN5CCCC5)nc4)CC3)o2)cc1	31	1.8	–	9.1	–	–	–	–	–
COc1ccc(-c2nnc(C(=O)N3CC(Oc4ccc(CN(C)C)cc4)C3)o2)cc1	67	1.55	17	8.9	14	53	–	–	–
COc1ccc(-c2nnc(C(=O)N3CC(Oc4ccc(CN5CCCOCC5)cc4)C3)o2)cc1	51	2.4	37	8.1	–	–	–	–	–
